From patent US20030157670A1 (priority 2002, published 2003)

What was measured:
[1] = system: capsaicin decomposing/synthesizing enzyme (purified enzyme); format: biochemical, Streptomyces mobaraensis IFO 13819
[2] = system: capsaicin decomposing/synthesizing enzyme; format: biochemical, Streptomyces mobaraensis IFO 13819
[3] = system: capsaicin decomposing/synthesizing enzyme (purified enzyme from Streptomyces mobaraensis IFO13819); assay: Synthesis of capsaicin analogs from vanillylamine and fatty acids with the enzyme of the invention; format: biochemical; details: vanillylamine hydrochloride 10 mM, fatty acid 100 mM, 30 U enzyme, water/n-hexane, 37° C., 8 days, 0.5 mM CoCl2
Description: Next, capsaicin analogs were synthesized by using the capsaicin decomposing/synthesizing enzyme (purified enzyme from Streptomyces mobaraensis IFO13819) according to the present invention.
(§1) The reaction temperature was 37° C.
(§2) As a comparative example, aminoacylase was used. The resulting capsaicin analogs were quantitatively measured by the HPLC analysis of the hexane phases.

aminoacylase = assay: Synthesis of capsaicin analogs from vanillylamine and fatty acids with aminoacylase (comparative example); format: biochemical; details: vanillylamine hydrochloride 10 mM, fatty acid 100 mM, water/n-hexane, 37° C., 8 days, 0.5 mM CoCl2
Description: as §1, §2

| Structure (SMILES) | effect on capsaicin hydrolysis activity of the purified enzyme [1] | residual activity, cobalt ions added versus not added [2] | Synthesis of capsaicin analogs, Capsaicin decomposing synthesizing enzyme of the invention [3] [mM] | Synthesis of capsaicin analogs, Aminocylase (aminoacylase) [mM] |
| --- | --- | --- | --- | --- |
| [Cl-].[Cl-].[Co+2] [CoCl2] | enhanced | higher residual activity | – | – |
| CCCCCCCCCCCC(=O)O [Lauric acid] | – | – | 1.25 | 0.051 |
| CCCCCCCCCCCCCC(=O)O [Myristic acid] | – | – | 0.24 | – |
